Laboratory results: ChEMBL document CHEMBL1133939, “Structure-activity relationship studies of a bisbenzimidazole-based, Zn(2+)-dependent inhibitor of HCV NS3 serine protease” (Bioorg Med Chem Lett, 2001)

What was measured:
NS3 [1] = biological target: T1, NS3 (Hepatitis C virus, UniProt A3EZJ3); experiment: Inhibitory activity against hepatitis C virus (HCV) NS3 protease in the presence of Zn2+.; design: species or system Hepacivirus hominis
NS3 [2] = biological target: T1, NS3; experiment: Inhibitory activity against hepatitis C virus (HCV) NS3 protease in the absence of Zn2+; design: species or system Hepacivirus hominis

T1 sequence (A3EZJ3 whole entry): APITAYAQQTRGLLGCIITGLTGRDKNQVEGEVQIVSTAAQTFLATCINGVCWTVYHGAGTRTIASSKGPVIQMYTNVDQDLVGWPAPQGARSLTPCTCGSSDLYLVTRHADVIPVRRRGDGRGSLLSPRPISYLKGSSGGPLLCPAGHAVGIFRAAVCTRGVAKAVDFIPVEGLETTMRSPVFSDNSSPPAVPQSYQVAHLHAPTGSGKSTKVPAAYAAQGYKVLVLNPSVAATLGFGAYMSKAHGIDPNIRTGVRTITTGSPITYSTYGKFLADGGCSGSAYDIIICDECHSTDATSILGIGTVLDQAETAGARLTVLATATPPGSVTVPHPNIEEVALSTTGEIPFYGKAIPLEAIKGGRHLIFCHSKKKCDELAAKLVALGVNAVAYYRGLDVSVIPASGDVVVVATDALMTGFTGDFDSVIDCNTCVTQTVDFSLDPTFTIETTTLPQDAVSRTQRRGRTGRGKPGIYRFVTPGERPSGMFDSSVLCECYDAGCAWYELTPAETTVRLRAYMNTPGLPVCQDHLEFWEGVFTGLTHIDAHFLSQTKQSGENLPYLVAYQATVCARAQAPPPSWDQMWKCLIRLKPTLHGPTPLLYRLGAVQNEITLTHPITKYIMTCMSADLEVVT

SMILES	IC50 (NS3 [1])	IC50 (NS3 [2])
Cn1c(Cc2nc3cc(C(N)=O)ccc3[nH]2)nc2ccc(C(=O)Nc3cc(C(=O)O)cc(C(=O)NC(CC(=O)O)C(=O)O)c3)cc21 (configuration not stated)	1 µM	
Cn1c(Cc2nc3cc(C(N)=O)ccc3[nH]2)nc2ccc(C(=O)NC(CCCP(=O)(O)O)C(=O)O)cc21 (configuration not stated)	0.82 µM	
Cn1c(Cc2nc3cc(C(N)=O)ccc3[nH]2)nc2ccc(C(=O)Nc3cc(C(=O)O)cc(C(=O)NC(CCC(=O)O)C(=O)O)c3)cc21 (configuration not stated)	2 µM	
Cn1c(Cc2nc3ccc(C(N)=O)cc3[nH]2)nc2ccc(C(=O)NC(CCC(=O)NS(=O)(=O)c3ccccc3C(=O)O)C(=O)O)cc21 (configuration not stated)	2.6 µM	
Cn1c(Cc2nc3cc(C(N)=O)ccc3[nH]2)nc2ccc(C(=O)NC(Cc3ccc(OCC(=O)O)c(C(=O)O)c3)C(=O)O)cc21 (configuration not stated)	4 µM	
Cn1c(Cc2nc3ccc(C(N)=O)cc3[nH]2)nc2ccc(C(=O)NC(CCCCCP(=O)(O)O)C(=O)O)cc21 (configuration not stated)	0.51 µM	
Cn1c(Cc2nc3cc(C(N)=O)ccc3[nH]2)nc2ccc(C(=O)NC(CCP(=O)(O)O)C(=O)O)cc21 (configuration not stated)	0.87 µM	
Cn1c(Cc2nc3ccc(C(N)=O)cc3[nH]2)nc2ccc(C(=O)Nc3cccc(C(=O)NCCCC(=O)O)c3)cc21	43 µM	
Cn1c(Cc2nc3ccc(C(N)=O)cc3[nH]2)nc2ccc(C(=O)NC(Cc3cc(OCC(=O)O)ccc3C(=O)O)C(=O)O)cc21 (configuration not stated)	12 µM	
Cn1c(Cc2nc3ccc(C(N)=O)cc3[nH]2)nc2ccc(C(=O)NC(Cc3ccc(C(=O)O)c(OCC(=O)O)c3)C(=O)O)cc21 (configuration not stated)	9 µM	
Cn1c(Cc2nc3ccc(C(N)=O)cc3[nH]2)nc2ccc(C(=O)Nc3ccc(C(=O)NC(CCC(=O)O)C(=O)O)cc3)cc21 (configuration not stated)	17 µM	
Cn1c(Cc2nc3ccc(C(N)=O)cc3[nH]2)nc2ccc(C(=O)NC(Cc3ccc(O)c(C(=O)O)c3)C(=O)O)cc21 (configuration not stated)	7 µM	
Cn1c(Cc2nc3ccccc3[nH]2)nc2ccc(C(=O)NC(CC(=O)NS(=O)(=O)c3ccccc3C(=O)O)C(=O)O)cc21 (configuration not stated)	3.4 µM	
COC(=O)c1ccccc1S(=O)(=O)NC(=O)CC[C@H](NC(=O)c1ccc2nc(Cc3nc4cc(C(N)=O)ccc4[nH]3)n(C)c2c1)C(=O)OCc1ccccc1	29 µM	
Cn1c(Cc2nc3cc(C(N)=O)ccc3[nH]2)nc2ccc(C(=O)NC(Cc3cccc(C(=O)O)c3)C(=O)O)cc21 (configuration not stated)	25 µM	
Cn1c(Cc2nc3ccccc3[nH]2)nc2ccc(C(=O)NCCc3ccc(OCC(=O)NS(=O)(=O)c4ccccc4)cc3)cc21	12 µM	
Cn1c(Cc2nc3cc(C(N)=O)ccc3[nH]2)nc2ccc(C(=O)NC(CP(=O)(O)O)C(=O)O)cc21 (configuration not stated)	0.2 µM	167 µM
COC(=O)c1ccccc1S(=O)(=O)NC(=O)CC(NC(=O)c1ccc2nc(Cc3nc4ccccc4[nH]3)n(C)c2c1)C(=O)O (configuration not stated)	11 µM	
Cn1c(Cc2nc3ccccc3[nH]2)nc2ccc(C(=O)NC(CCC(=O)N(CC(=O)O)CC(=O)O)C(=O)O)cc21 (configuration not stated)	7.7 µM	
Cn1c(Cc2nc3cc(C(N)=O)ccc3[nH]2)nc2ccc(C(=O)NCCc3ccc(OCC(=O)O)cc3)cc21	16 µM	
COC(=O)c1ccccc1S(=O)(=O)NC(=O)CC(NC(=O)c1ccc2nc(Cc3nc4ccc(C(N)=O)cc4[nH]3)n(C)c2c1)C(=O)O (configuration not stated)	8.1 µM	
Cn1c(Cc2nc3cc(C(N)=O)ccc3[nH]2)nc2ccc(C(=O)NC(CC(C(=O)O)C(=O)O)C(=O)O)cc21 (configuration not stated)	2.6 µM	
Cn1c(Cc2nc3ccc(C(N)=O)cc3[nH]2)nc2ccc(C(=O)Nc3cccc(C(=O)NC(CCC(=O)O)C(=O)O)c3)cc21 (configuration not stated)	6.4 µM	
COC(=O)c1ccccc1S(=O)(=O)NC(=O)C[C@H](NC(=O)c1ccc2nc(Cc3nc4ccc(C(N)=O)cc4[nH]3)n(C)c2c1)C(=O)OCc1ccccc1	37 µM	
Cn1c(Cc2nc3ccc(C(N)=O)cc3[nH]2)nc2ccc(C(=O)NC(Cc3ccc(OCC(=O)O)cc3)C(=O)O)cc21 (configuration not stated)	1 µM	
Cn1c(Cc2nc3cc(C(N)=O)ccc3[nH]2)nc2ccc(C(=O)NC(CC(=O)NS(=O)(=O)c3ccccc3C(=O)O)C(=O)O)cc21 (configuration not stated)	1.6 µM	
